Literature values, collected in US20180191016A1, “FLOW BATTERIES INC[…] PHE[…] WITHIN AN AQUEOUS ELECTROLYTE SOLUTION” (LOCKHEED MARTIN ADVANCED ENERGY STORAGE, LLC, priority 2017, published 2018).

Details: compared to a reversible hydrogen electrode

In the case of c1ccc2c(c1)Nc1ccccc1S2 [phenothiazine], the standard reduction potential is listed as “approximately +0.9 V”.
